Experimental data: article PMC7298712 (mBio, 2020)

Target: Risk1 (RT0135; rRisk1 WT) (Rickettsia typhi, UniProt Q68XM2)
Type: biochemical

Sequence of Risk1 (RT0135; rRisk1 WT) (Q68XM2 1-707): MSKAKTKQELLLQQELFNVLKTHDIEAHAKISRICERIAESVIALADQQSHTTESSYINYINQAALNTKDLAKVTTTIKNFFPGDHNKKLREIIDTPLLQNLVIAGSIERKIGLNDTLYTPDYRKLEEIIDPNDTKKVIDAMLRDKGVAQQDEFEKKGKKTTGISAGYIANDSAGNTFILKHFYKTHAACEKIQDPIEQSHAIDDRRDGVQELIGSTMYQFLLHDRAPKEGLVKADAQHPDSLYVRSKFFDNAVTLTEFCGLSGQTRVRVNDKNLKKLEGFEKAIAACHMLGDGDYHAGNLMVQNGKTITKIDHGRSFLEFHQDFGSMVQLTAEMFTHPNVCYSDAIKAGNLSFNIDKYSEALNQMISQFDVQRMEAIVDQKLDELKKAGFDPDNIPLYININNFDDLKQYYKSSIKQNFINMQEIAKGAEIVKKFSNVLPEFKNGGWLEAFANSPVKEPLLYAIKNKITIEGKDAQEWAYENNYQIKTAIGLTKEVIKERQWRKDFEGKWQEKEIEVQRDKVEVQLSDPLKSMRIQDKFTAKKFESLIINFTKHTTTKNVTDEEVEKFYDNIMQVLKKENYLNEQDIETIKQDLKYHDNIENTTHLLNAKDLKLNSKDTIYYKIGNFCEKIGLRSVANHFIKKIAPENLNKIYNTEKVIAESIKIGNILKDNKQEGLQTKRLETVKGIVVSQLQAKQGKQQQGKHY

SMILES: COC[C@H]1OC(=O)c2coc3c2[C@@]1(C)C1=C(C3=O)[C@@H]2CCC(=O)[C@@]2(C)C[C@H]1OC(C)=O [wortmannin]
- ADP-Glo in vitro kinase assay, inhibition: preincubation with wortmannin significantly inhibited, in a concentration-dependent manner
